Assay results taken from patent publication US7838522B2, “Benzothiazole formulations and use thereof” (Ares Trading S.A., priority 2004, dated 2010).

Assay: Pharmacokinetic profile after oral administration in Beagle dogs
Format: in vivo
Conditions: dog, plasma, 10.6 mg/kg, Compound A in Water for Injection
Method: Macrogol Glyceride formulations were orally administered in Beagle dogs as extemporaneous suspension in PBS at a dose of 10.6 mg/kg following the protocol below, by gavage in a volume of 2 mL/kg and bulk formulation by forced introduction into the throat.
The formulations were administered to the animals which had fasted overnight (i.e. for about 16 hours) before treatment, food was allowed again 4 hours after treatment.
Macrogol Glyceride formulations (1) and (2) were orally administered as described above. A wash-out interval between the administration of formulation (1) and of formulations (2) was of at least 1 week.
6 Beagle dogs (3 males and 3 females) of about 10-13 kg of bodyweight and of age 9 to 12 months were used. Animals were weighed fasted before administration and the body weight recorded.
Blood (at least 2.5 ml) was collected from a jugular vein into heparinised tubes before and after dosing, at the following 15 times:
Blood was centrifuged within 15 min at about 2500 g at +4° C. for 10 min. Blood cells were discharged and plasma obtained was divided into 3 aliquots (at least 0.3 mL each). The plasma concentrations of Compound A (free base of Compound A, mesylate) in the unknown dog plasma samples was determined by a High Performance Liquid Chromatography/Mass Spectrometry (HPLC/MS). […]

bioavailability: < 15%
Structure (SMILES): N#CC(c1ccnc(OCc2ccc(CN3CCOCC3)cc2)n1)c1nc2ccccc2s1 (stereo not shown) [Compound A, 1,3 benzothiazol-2-yl-[2-(4-morpholin-4-ylmethyl-benzyloxy)-pyrimidin-4-yl]-acetonitrile]
